Results taken from US9513294B2, “Megastokes amino-triazolyl-BODIPY compounds and applications to live neuron staining and human serum albumin FA1 drug site probing” (National University of Singapore, priority 2012, dated 2016).
Entries after “also recorded” stand apart in the source; their conditions may differ. Values belong to the compound of their own block, whether it stands above or below them.

Experiments:
[1] = target: T1, HSA (Homo sapiens, UniProt P02768); test: Determination of dissociation constant with HSA (fluorescence titration, one-site model); details: HSA 10 μM, one-site specific binding model
T1 sequence (P02768 25-609): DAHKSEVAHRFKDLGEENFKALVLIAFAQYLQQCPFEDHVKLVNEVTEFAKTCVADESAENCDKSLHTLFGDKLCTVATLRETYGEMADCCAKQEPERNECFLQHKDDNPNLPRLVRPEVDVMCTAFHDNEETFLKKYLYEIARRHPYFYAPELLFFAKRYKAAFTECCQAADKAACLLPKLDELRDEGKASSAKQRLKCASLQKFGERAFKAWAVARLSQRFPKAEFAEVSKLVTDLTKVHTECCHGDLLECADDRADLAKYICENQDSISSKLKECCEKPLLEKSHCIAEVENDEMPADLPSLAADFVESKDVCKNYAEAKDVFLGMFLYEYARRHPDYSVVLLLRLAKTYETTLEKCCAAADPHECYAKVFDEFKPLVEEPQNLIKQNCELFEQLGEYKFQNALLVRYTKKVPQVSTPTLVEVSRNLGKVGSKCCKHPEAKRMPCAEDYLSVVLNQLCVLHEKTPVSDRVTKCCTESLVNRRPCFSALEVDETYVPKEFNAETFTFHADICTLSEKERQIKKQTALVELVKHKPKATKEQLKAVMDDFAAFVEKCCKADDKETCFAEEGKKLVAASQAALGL
Description: HSA (10 μM) was titrated against serial concentrations of BDC-9 (0.47 to 60 μM) and the fluorescence intensities were measured at 575 nm (λexc=460 nm). The fluorescence intensity of bound BDC-9 at each concentration was determined using the equation:
[formula] where F and F0 are the fluorescence intensities of a given concentration of BDC-9 with and without HSA respectively. Fsat is the fluorescence intensity at the same concentration of BDC-9 when fully bound.

[2] = Quantum yield measurements versus Acridine Yellow in EtOH; type: physicochemical; details: for φ (quantum yield): excitation 460 nm; for φ (%): quantum yield
Outline: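 Fluorescence quantum yield is relative to Acridine Yellow in EtOH (Φ 0.47), with excitation at 460 nm. Integrated emission at 510–700 nm was corrected for absorbance at the excitation wavelength and for solvent refractive index.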

[3] = system: serum albumins from rat (RSA), porcine (PSA), rabbit (RbSA), sheep (SSA) and bovine (BSA); test: Species selectivity: fluorescence response to serum albumins of different species; type: binding; details: 10 μM, albumins 1.2×10^−4 to 4 mg/mL
Description: FIGS. 7a and 7b show species selectivity of BDC-9. […] FIG. 7b is a photographic image of BDC-9 (10 μM) mixed with respective albumins. Irradiation with a handheld UV lamp at 365 nm.
The selectivity of BDC-9 towards serum albumins from different species was investigated. Serum albumins represent a family of proteins with a high degree of similarity in their primary sequence across various species (˜75% homology) (34,39,40,62). […] The fluorescence response of BDC-9 was evaluated against serial concentrations of serum albumins from rat (RSA), porcine (PSA), rabbit (RbSA), sheep (SSA) and bovine (BSA).

[4] = target: T1, HSA; test: Quantification of HSA in spiked urine samples; details: urine spiked with HSA up to 1 mg/mL
Description: HSA (0 to 1 mg/mL) was added to 10% urine from healthy individuals in phosphate buffer (pH=7.3). BDC-9 was added at 10 μM concentration; λexc.: 460 nm, λem.: 575 nm; values represented as means (n=3) and error bars as standard deviations; linear regression: R^2=0.998.
In order to examine the selectivity and sensitivity of BDC-9 in complex matrices, BDC-9 was utilized to quantify the amount of HSA in urine samples. Microalbuminuria, which involves an albumin excretion rate of 15 to 40 μg/mL (80, 81), is a well-established cardiovascular risk marker and an indication of liver and renal disease (32,33). The fluorescence response of BDC-9 was analyzed in urine that was spiked with different amounts of HSA, up to 1 mg/mL.

[5] = target: T1, HSA; test: Fluorescence response to serial dilutions of HSA; type: binding
Description: Values are represented as means (n=3).
Mixtures of BDC-9 with HSA were prepared in phosphate buffer (pH 7.3, 1% DMSO) at room temperature and fluorescence measurements were taken after incubation for 2 h unless otherwise stated.

[6] = Effect of solvent viscosity on fluorescence intensity (molecular rotor); type: physicochemical; details: 100 μM, rt, solvents of similar polarity
Description: The fluorescence spectra of compound (BDC-9) in different solvents of similar polarities but covering a range of viscosities were analyzed. […] Increased solvent viscosity reduces bond rotation at positions 3 and 5 of the BODIPY core, which, without being bound to theory, minimizes non-radiative energy loss and leads to higher quantum yields (24).

[7] = target: human serum albumin (Homo sapiens, UniProt P02768); test: In vitro fluorescence screening against 84 biologically relevant analytes / 16 proteins; type: binding; details: 10 μM, 10 mM HEPES pH 7.4, 1% DMSO
Chain of human serum albumin (P02768 25-609): as above
Description: F0 is the fluorescence intensity of BDC-9 in HEPES buffer. Values are represented as means (n=4).
Amino-triazolyl-BODIPYs (10 μM) were screened in 10 mM HEPES buffer, pH 7.4, containing 1% DMSO. Fluorescence intensities were measured using a SpectraMax M2 platereader in 384-well plates. Excitation was provided at each compound's excitation range, and emission spectrum was obtained starting from at least 30 nm beyond the excitation wavelength. All the analytes were tested at four serial concentrations.
The fluorescent response of BDC, BDCAC and BDCCA was examined against 84 biologically relevant analytes that were categorized into nine different sets (i.e. pH standards, viscous solutions, genetic macromolecules, peptides, metal ions, redox molecules, nucleic acids, proteins and other metabolites).

[8] = target: HSA (fatty-acid free) (Homo sapiens, UniProt P02768); test: Competition with site-selective HSA-binding drugs; details: from competition assays
Chain of HSA (fatty-acid free) (P02768 25-609): as above
Description: HSA (fatty-acid free) (0.34 mg/mL, 5 μM) was preincubated for 2 h in phosphate buffer with different concentrations of the drugs (up to 200 μM) before BDC-9 (10 μM) was added. F is the fluorescence intensity at the indicated drug concentration and F0 is the fluorescence intensity with no drug added; λexc.: 460 nm, λem.: 575 nm; values are represented as means and error bars as standard deviations (n=3).
The binding properties of BDC-9 were studied. HSA consists of at least nine binding sites (34-38), amongst which fatty acid (FA) sites 1, 3 and 4 (Sudlow Site II), 5, 6 and 7 (Sudlow Site I) are known to have affinity for drug compounds (31,39-44). […] To verify specific binding and determine the binding site(s) of BDC-9 in HSA, competition assays using drugs binding to the respective sites (e.g. hemin (FA1 site)(71,72), dansyl-L-norvaline (FA3/4 sites) (73), propofol (FA3/4 and FA5 sites) (35), ibuprofen (FA3/4 and FA6 sites) (74) and warfarin (FA7 site) (74) were performed (75).
There have been several reports of fluorescent dyes binding to FA3/4 (48,49,73), FA6 (51) and FA7 (54,55,76) sites. The present invention represents the first known experimentally proven fluorescent dye binding to the FA1 site (76), in which binding is not dependent on contact with bound lipid (72). BDC-9 is therefore a valuable probe for examining the heme region on HSA.

[9] = Absorbance and fluorescence emission spectra (SpectraMax M2); type: physicochemical; details: for λmax Absorp. (nm) / λmax Emission (nm): MKCA compound library; for λmax Absorp. (nm) / λmax Abs. (nm): absorbance maximum; for λmax Emission (nm) / λmax Em. (nm): fluorescence emission maximum; for λmax Abs. (nm) / λmax Em. (nm): MKAC compound library
Outline: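 Absorbance and emission maxima measured on a SpectraMax M2 spectrophotometer, which also gave quantum yield data; analysis in GraphPrism.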

[10] = system: mixed primary neural cell populations; test: Flow cytometry analysis and FACS sorting of mixed primary neural cells; type: cell-based, mouse
Source text: Unstained controls are shown in each spectrum from about 0 to about 1 G.
To further analyze this population of compound positive cells, the two populations (Bright and Dim) were sorted out cell re-culture and RNA extraction for gene analysis.

Kd [1]: 12.7 ± 0.4 µM
φ (quantum yield) ([2]; BDC library, Table 2): 0.22%
correlation between fluorescence response and amount of HSA in urine [4]: excellent linear correlation
increase in fluorescence upon binding to HSA ([5]; 10 μM, phosphate buffer, λexc 460 nm): 220 fold
limit of detection of HSA ([5]; S/N=3): 0.3 µg/mL
λmax Absorp. ([9]; BDC library, Table 2): 472 nm
λmax Emission ([9]; BDC library, Table 2): 581 nm
Structure (SMILES): Nc1ccc(C2=C3C=CC(N4CCCCC4)=[N+]3[B-](F)(F)n3c2ccc3-n2cc(-c3ccccc3)nn2)cc1 [BDC-9, 10-(4-aminophenyl)-5,5-difluoro-7-(4-phenyl-1H-1,2,3-triazol-1-yl)-3-(piperidin-1-yl)-5H-dipyrrolo[1,2-c:2′,1′-f][1,3,2]diazaborinin-4-ium-5-uide]
selectivity towards HSA versus serum albumins from other species [3]: marked selectivity towards HSA with marginal response on the other species
fluorescence intensity versus solvent viscosity [6]: systematically increased in more viscous alcohols; also recorded: strong correlation between fluorescence intensity and viscosity
selectivity of fluorescence response among proteins and analytes [7]: remarkable selectivity towards human serum albumin
binding site on HSA [8]: binding to the FA1 site (heme site) of HSA

φ (%) ([2]; MKCA compound library): 31.22%
λmax Absorp. (nm) [9]: 464 nm
λmax Emission (nm) [9]: 563 nm
Structure (SMILES): CCCC(C)c1cn(-c2ccc3n2[B-](F)(F)[N+]2=C(NCc4ccccc4C)C=CC2=C3c2ccc(NC(=O)CCl)cc2)nn1 (stereo not drawn) [MKCA101-3]
flow cytometry profile of stained mixed neural cell populations [10]: neuronal population segregating from the main population

φ (quantum yield) ([2]; MK library, Table 5): 0.32%
λmax Absorp. ([9]; MK library, Table 5): 476 nm
λmax Emission ([9]; MK library, Table 5): 584 nm
Structure (SMILES): CCCc1cn(-c2ccc3n2[B-](F)(F)[N+]2=C(N(C)Cc4ccccc4)C=CC2=C3c2ccc(N)cc2)nn1 [MK195-48]

φ (%) ([2]; MKAC compound library): 20.12%
λmax Abs. (nm) [9]: 465 nm
λmax Em. (nm) [9]: 562 nm
Structure (SMILES): CC(=O)Nc1ccc(C2=C3C=CC(NCc4ccccc4C)=[N+]3[B-](F)(F)n3c2ccc3-n2cc(CC(C)C)nn2)cc1 [MKAC101-43]

φ (%) ([2]; MKCA compound library): 36.92%
λmax Absorp. (nm) [9]: 467 nm
λmax Emission (nm) [9]: 564 nm
Structure (SMILES): O=C(CCl)Nc1ccc(C2=C3C=CC(NCc4cc(F)cc(F)c4)=[N+]3[B-](F)(F)n3c2ccc3-n2cc(CC3CCCCC3)nn2)cc1 [MKCA412-8]

φ (%) ([2]; MKCA compound library): 4.93%
λmax Absorp. (nm) [9]: 467 nm
λmax Emission (nm) [9]: 580 nm
Structure (SMILES): CN(Cc1ccccc1)C1=[N+]2C(=C(c3ccc(NC(=O)CCl)cc3)c3ccc(-n4cc(C5CCCC5)nn4)n3[B-]2(F)F)C=C1 [MKCA195-5]

Continued, compound first:

Structure (SMILES): CC(=O)Nc1ccc(C2=C3C=CC(N4CCc5ccccc5C4)=[N+]3[B-](F)(F)n3c2ccc3-n2cc(CO)nn2)cc1 [MKAC66-70]
φ (%) ([2]; MKAC compound library): 1.44%
λmax Abs. (nm) [9]: 468 nm
λmax Em. (nm) [9]: 582 nm

Structure (SMILES): CCCCCC(O)c1cn(-c2ccc3n2[B-](F)(F)[N+]2=C(NCc4ccccc4OCC)C=CC2=C3c2ccc(NC(C)=O)cc2)nn1 (stereo not drawn) [MKAC103-69]
φ (%) ([2]; MKAC compound library): 20.91%
λmax Abs. (nm) [9]: 465 nm
λmax Em. (nm) [9]: 561 nm

Structure (SMILES): Nc1ccc(C2=C3C=CC(N4CCCC4)=[N+]3[B-](F)(F)n3c2ccc3-n2cc(CCc3ccccc3)nn2)cc1 [MK215-19]
φ (quantum yield) ([2]; MK library, Table 5): 0.22%
λmax Absorp. ([9]; MK library, Table 5): 471 nm
λmax Emission ([9]; MK library, Table 5): 578 nm

Structure (SMILES): CCCC(C)c1cn(-c2ccc3n2[B-](F)(F)[N+]2=C(NCc4cc(F)cc(F)c4)C=CC2=C3c2ccc(NC(C)=O)cc2)nn1 (stereo not drawn) [MKAC412-3]
φ (%) ([2]; MKAC compound library): 27.73%
λmax Abs. (nm) [9]: 466 nm
λmax Em. (nm) [9]: 561 nm

Structure (SMILES): O=C(CCl)Nc1ccc(C2=C3C=CC(N4CCCCC4)=[N+]3[B-](F)(F)n3c2ccc3-n2cc(C3CCCCC3)nn2)cc1 [BDCCA-6]
φ (quantum yield) ([2]; BDCCA library, Table 4): 2.3%
λmax Absorp. ([9]; BDCCA library, Table 4): 467 nm
λmax Emission ([9]; BDCCA library, Table 4): 555 nm

Structure (SMILES): CCCCCC(O)c1cn(-c2ccc3n2[B-](F)(F)[N+]2=C(N4CC(C)OC(C)C4)C=CC2=C3c2ccc(NC(C)=O)cc2)nn1 (stereo not drawn) [MKAC20-69]
φ (%) ([2]; MKAC compound library): 2.23%
λmax Abs. (nm) [9]: 469 nm
λmax Em. (nm) [9]: 590 nm

Structure (SMILES): CN(Cc1ccccc1)C1=[N+]2C(=C(c3ccc(N)cc3)c3ccc(-n4cc(CO)nn4)n3[B-]2(F)F)C=C1 [MK195-70]
φ (quantum yield) ([2]; MK library, Table 5): 0.27%
λmax Absorp. ([9]; MK library, Table 5): 475 nm
λmax Emission ([9]; MK library, Table 5): 592 nm

Structure (SMILES): CC(=O)Nc1ccc(C2=C3C=CC(N4CCc5ccccc5C4)=[N+]3[B-](F)(F)n3c2ccc3-n2cc(CCc3ccccc3)nn2)cc1 [MKAC66-19]
φ (%) ([2]; MKAC compound library): 1.76%
λmax Abs. (nm) [9]: 470 nm
λmax Em. (nm) [9]: 580 nm
